These results are taken from PubChem BioAssay AID1259407 (Chemical Carcinogenesis Research Information System (CCRIS), 2018).

This series has as its system CCRIS mutagenicity, Ames/micronucleus/aberration tests. Nature of the series: CCRIS mutagenicity studies.
Setting [1] is: Test System: AMES SALMONELLA TYPHIMURIUM, Strain/Indicator: TA98, Metabolic Activation: NONE, Method: PREINCUBATION
Setting [2] is: Test System: AMES SALMONELLA TYPHIMURIUM, Strain/Indicator: TA100, Metabolic Activation: NONE, Method: STANDARD PLATE.
[3] abbreviates: Test System: AMES SALMONELLA TYPHIMURIUM, Strain/Indicator: TA100, Metabolic Activation: RAT, LIVER, S-9, AROCLOR 1254, Method: STANDARD PLATE.

Calls of active or inactive are those of the source. No rule for the calls is given here.

Regarding `CSc1nc2cc(Oc3cccc(Cl)c3Cl)c(Cl)cc2[nH]1`, the mutagenic call is, setting by setting: (End Point: IN VITRO CHROMOSOMAL ABERRATIONS, Test System: RIVER BUFFALO LYMPHOCYTES, Metabolic Activation: NONE) “active; positive (structural and ploidy changes)”; (End Point: IN VITRO MICRONUCLEUS, Test System: RIVER BUFFALO LYMPHOCYTES, Metabolic Activation: NONE) “active; positive”.
As to `O=[N+]([O-])c1ccc2ccc3c4ccccc4c([N+](=O)[O-])c4ccc1c2c43`, the mutagenic call reads like this: (Test System: AMES SALMONELLA TYPHIMURIUM, Strain/Indicator: TA98(1,8-DNP6), Metabolic Activation: NONE) “active; positive”; (Test System: AMES SALMONELLA TYPHIMURIUM, Strain/Indicator: TA98(NR), Metabolic Activation: NONE) “active; positive”; (Test System: AMES SALMONELLA TYPHIMURIUM, Strain/Indicator: TA98(NR), Metabolic Activation: NONE, Method: PREINCUBATION) “active; positive”; (Test System: AMES SALMONELLA TYPHIMURIUM, Strain/Indicator: TA98, Metabolic Activation: NONE) “active; positive”; under setting [1], “active; positive”; (Test System: AMES SALMONELLA TYPHIMURIUM, Strain/Indicator: TA98, Metabolic Activation: NONE, Method: STANDARD PLATE) “active; positive”. Further, the mutagenic call under setting [2] was “active; positive”.
With `C[C@@H]1CC2c3cc(Br)cc4c3c(cn4CC3CC3)C[C@H]2N(C)C1` (some centres undefined), the mutagenic call under setting [3] is “inactive; negative”.
For `CN(C)N`, the mutagenic call is, setting by setting: (End Point: IN VITRO CHROMOSOMAL ABERRATIONS, Test System: CHL CELLS, Metabolic Activation: NONE) “active; positive (structural changes)”; (End Point: IN VITRO CHROMOSOMAL ABERRATIONS, Test System: CHL CELLS, Metabolic Activation: RAT, LIVER, S-9, SODIUM PHENOBARBITAL AND 5,6-BENZOFLAVONE) “active; positive (structural changes)”; under setting [1], “inactive; negative”; (Test System: AMES SALMONELLA TYPHIMURIUM, Strain/Indicator: TA98, Metabolic Activation: RAT LIVER S-9, PHENOBARBITAL AND BETA-NAPHTHOFLAVONE, Method: PREINCUBATION) “inactive; negative”; (Test System: AMES SALMONELLA TYPHIMURIUM, Strain/Indicator: TA100, Metabolic Activation: NONE, Method: PREINCUBATION) “inactive; negative”; under setting [2], “inactive; negative”. Besides, the mutagenic call is “inactive; negative” (Test System: AMES SALMONELLA TYPHIMURIUM, Strain/Indicator: TA100, Metabolic Activation: RAT LIVER S-9, PHENOBARBITAL AND BETA-NAPHTHOFLAVONE, Method: PREINCUBATION); “inactive; negative” (Test System: AMES SALMONELLA TYPHIMURIUM, Strain/Indicator: TA100, Metabolic Activation: RAT, LIVER, S-9, AROCLOR 1254 (1 OR 2 MG), Method: STANDARD PLATE); “inactive; negative” under setting [3]; “inactive; negative” (Test System: AMES SALMONELLA TYPHIMURIUM, Strain/Indicator: TA102, Metabolic Activation: NONE, Method: PREINCUBATION); “inactive; negative” (Test System: AMES SALMONELLA TYPHIMURIUM, Strain/Indicator: TA102, Metabolic Activation: NONE, Method: STANDARD PLATE); “inactive; negative” (Test System: AMES SALMONELLA TYPHIMURIUM, Strain/Indicator: TA102, Metabolic Activation: RAT LIVER S-9, PHENOBARBITAL AND BETA-NAPHTHOFLAVONE, Method: PREINCUBATION). Moreover, the mutagenic call reads like this: (Test System: AMES SALMONELLA TYPHIMURIUM, Strain/Indicator: TA102, Metabolic Activation: RAT, LIVER, S-9, AROCLOR 1254 (1 OR 2 MG), Method: STANDARD PLATE) “inactive; negative”; (Test System: AMES SALMONELLA TYPHIMURIUM, Strain/Indicator: TA102, Metabolic Activation: RAT, LIVER, S-9, AROCLOR 1254, Method: STANDARD PLATE) “inactive; negative”; (Test System: AMES SALMONELLA TYPHIMURIUM, Strain/Indicator: TA104, Metabolic Activation: NONE, Method: PREINCUBATION) “inactive; negative”; (Test System: AMES SALMONELLA TYPHIMURIUM, Strain/Indicator: TA104, Metabolic Activation: RAT LIVER S-9, PHENOBARBITAL AND BETA-NAPHTHOFLAVONE, Method: PREINCUBATION) “inactive; negative”; (Test System: AMES SALMONELLA TYPHIMURIUM, Strain/Indicator: TA1530, Metabolic Activation: NONE, Method: STANDARD PLATE) “active; positive”; (Test System: AMES SALMONELLA TYPHIMURIUM, Strain/Indicator: TA1535, Metabolic Activation: NONE, Method: PREINCUBATION) “inactive; negative”. Moreover, the mutagenic call runs as follows: (Test System: AMES SALMONELLA TYPHIMURIUM, Strain/Indicator: TA1535, Metabolic Activation: RAT LIVER S-9, PHENOBARBITAL AND BETA-NAPHTHOFLAVONE, Method: PREINCUBATION) “inactive; negative”; (Test System: AMES SALMONELLA TYPHIMURIUM, Strain/Indicator: TA1535, Metabolic Activation: RAT, LIVER, S-9, AROCLOR 1254, Method: PREINCUBATION) “inactive; negative”; (Test System: AMES SALMONELLA TYPHIMURIUM, Strain/Indicator: TA1537, Metabolic Activation: RAT LIVER S-9, PHENOBARBITAL AND BETA-NAPHTHOFLAVONE, Method: PREINCUBATION) “inactive; negative”; (Test System: AMES SALMONELLA TYPHIMURIUM, Strain/Indicator: TA1537, Metabolic Activation: RAT, LIVER, S-9, AROCLOR 1254, Method: PREINCUBATION) “inactive; negative”; (Test System: AMES SALMONELLA TYPHIMURIUM, Strain/Indicator: TA2638, Metabolic Activation: NONE, Method: STANDARD PLATE) “active; positive”; (Test System: E. COLI, Strain/Indicator: WP2 (PKM101), Metabolic Activation: NONE, Method: STANDARD PLATE) “active; positive”. In addition, the mutagenic call runs as follows: (Test System: E. COLI, Strain/Indicator: WP2 UVRA (PKM101), Metabolic Activation: NONE, Method: STANDARD PLATE) “active; positive”; (Test System: E.COLI, Strain/Indicator: WP2UVRA/PKM101, Metabolic Activation: NONE, Method: PREINCUBATION) “inactive; negative”; (Test System: E.COLI, Strain/Indicator: WP2UVRA/PKM101, Metabolic Activation: RAT LIVER S-9, PHENOBARBITAL AND BETA-NAPHTHOFLAVONE, Method: PREINCUBATION) “inactive; negative”; (Test System: E.COLI, Strain/Indicator: WP2UVRA, Metabolic Activation: NONE, Method: PREINCUBATION) “inactive; negative”; (Test System: E.COLI, Strain/Indicator: WP2UVRA, Metabolic Activation: RAT LIVER S-9, PHENOBARBITAL AND BETA-NAPHTHOFLAVONE, Method: PREINCUBATION) “inactive; negative”.
